From US20230135152A1 (ACURASTEM INCORPORATED, priority 2020, published 2023) come the findings set out here.

In test [1] the target is T1, PIKFYVE (Homo sapiens, UniProt Q9Y2I7). Put plainly: PIKFYVE assay (luciferase ADP-Glo kinase assay, Promega). Format: biochemical. An outline of the steps:
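Kinase activity measured with a luciferase-based ADP-Glo read-out, which quantifies ADP formed by the enzyme.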

The target of test [2] is T1, PIKFYVE. Put plainly: Cell-based Pikfyve inhibition activity assay (EEA1 staining, mean vesicle size in BJ fibroblast cells). The following applies: Table 4, 4 hours treatment, 3 μM Apilimod = 100% inhibition. In outline: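 BJ fibroblasts treated 4 h at 37° C with eleven 3-fold doses (0.03-3000 nM), then fixed and stained for EEA1. Confocal images (20×, 16 tiles/well) analysed for mean vesicle size. Normalised to 0.5% DMSO (0%) and 3 μM apilimod (100%); dose-response fitted with variable slope.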

T1 sequence (Q9Y2I7 whole entry): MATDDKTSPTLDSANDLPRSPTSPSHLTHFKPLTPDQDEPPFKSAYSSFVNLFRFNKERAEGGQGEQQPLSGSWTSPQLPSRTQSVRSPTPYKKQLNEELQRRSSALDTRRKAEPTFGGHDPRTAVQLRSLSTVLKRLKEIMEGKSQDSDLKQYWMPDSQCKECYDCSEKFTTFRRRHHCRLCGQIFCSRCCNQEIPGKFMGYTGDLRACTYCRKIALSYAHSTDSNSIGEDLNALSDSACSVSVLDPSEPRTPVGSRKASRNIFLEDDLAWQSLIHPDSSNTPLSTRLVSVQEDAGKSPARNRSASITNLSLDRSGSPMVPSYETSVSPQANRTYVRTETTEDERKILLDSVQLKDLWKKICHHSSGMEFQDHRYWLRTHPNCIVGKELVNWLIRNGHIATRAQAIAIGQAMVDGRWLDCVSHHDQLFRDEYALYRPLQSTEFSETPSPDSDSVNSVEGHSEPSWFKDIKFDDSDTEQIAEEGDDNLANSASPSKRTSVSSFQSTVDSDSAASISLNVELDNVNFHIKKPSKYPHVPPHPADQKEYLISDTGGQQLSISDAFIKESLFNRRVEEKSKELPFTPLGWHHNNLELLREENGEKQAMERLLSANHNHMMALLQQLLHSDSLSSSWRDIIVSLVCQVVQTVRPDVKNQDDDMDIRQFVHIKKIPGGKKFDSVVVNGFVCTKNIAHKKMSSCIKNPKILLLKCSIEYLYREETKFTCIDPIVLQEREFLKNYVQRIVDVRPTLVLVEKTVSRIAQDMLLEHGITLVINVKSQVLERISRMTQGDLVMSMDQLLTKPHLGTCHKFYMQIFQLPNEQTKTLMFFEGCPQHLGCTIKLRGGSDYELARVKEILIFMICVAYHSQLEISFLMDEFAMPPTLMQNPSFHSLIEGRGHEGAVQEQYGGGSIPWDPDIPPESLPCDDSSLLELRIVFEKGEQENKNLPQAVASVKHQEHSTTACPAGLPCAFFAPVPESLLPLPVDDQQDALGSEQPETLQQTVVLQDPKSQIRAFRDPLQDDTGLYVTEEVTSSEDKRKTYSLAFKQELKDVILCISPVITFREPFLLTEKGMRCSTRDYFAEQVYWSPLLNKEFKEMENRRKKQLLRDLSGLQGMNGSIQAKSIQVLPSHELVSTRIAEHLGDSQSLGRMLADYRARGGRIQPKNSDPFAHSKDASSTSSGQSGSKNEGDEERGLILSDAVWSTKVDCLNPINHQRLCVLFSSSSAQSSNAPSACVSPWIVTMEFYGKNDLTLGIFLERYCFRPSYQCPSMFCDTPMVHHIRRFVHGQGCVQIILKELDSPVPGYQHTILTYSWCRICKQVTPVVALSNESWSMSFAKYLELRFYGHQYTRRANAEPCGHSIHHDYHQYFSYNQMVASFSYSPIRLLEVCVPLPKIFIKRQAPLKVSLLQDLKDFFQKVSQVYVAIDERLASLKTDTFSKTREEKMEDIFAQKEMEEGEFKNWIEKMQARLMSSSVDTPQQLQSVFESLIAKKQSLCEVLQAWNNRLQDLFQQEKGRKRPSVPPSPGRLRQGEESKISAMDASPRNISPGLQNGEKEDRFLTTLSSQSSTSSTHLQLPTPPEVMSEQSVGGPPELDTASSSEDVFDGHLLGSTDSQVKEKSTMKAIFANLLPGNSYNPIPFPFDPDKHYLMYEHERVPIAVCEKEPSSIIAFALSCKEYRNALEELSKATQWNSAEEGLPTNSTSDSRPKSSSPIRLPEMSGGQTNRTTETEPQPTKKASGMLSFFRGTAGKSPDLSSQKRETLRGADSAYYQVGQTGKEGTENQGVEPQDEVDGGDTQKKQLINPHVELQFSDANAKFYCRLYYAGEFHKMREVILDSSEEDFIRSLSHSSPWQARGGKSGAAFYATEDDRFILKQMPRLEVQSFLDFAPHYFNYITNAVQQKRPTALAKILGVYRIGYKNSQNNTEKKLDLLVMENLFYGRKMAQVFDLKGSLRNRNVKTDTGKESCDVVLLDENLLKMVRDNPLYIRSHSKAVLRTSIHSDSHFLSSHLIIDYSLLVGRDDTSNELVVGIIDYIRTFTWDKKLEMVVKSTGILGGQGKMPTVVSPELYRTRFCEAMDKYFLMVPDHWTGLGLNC

In the case of `CO[C@@H](CO)c1nc(N2CCOCC2)cc(-n2nc(-c3ccccc3)cc2C)n1` [Compound 204, (R)-2-methoxy-2-(4-(5-methyl-3-phenyl-1H-pyrazol-1-yl)-6-morpholinopyrimidin-2-yl)ethan-1-ol], the IC50 in test [1] (Table 3) is 10 to 100 nM. Further, the EC50 in test [2] was in the range of 500 to 5000 nM.
For `Cc1cccc(-c2ccn(-c3cc(N4CCOCC4)nc(CCc4cccnn4)n3)n2)c1` [Compound 317, 4-(2-(2-(pyridazin-3-yl)ethyl)-6-(3-(m-tolyl)-1H-pyrazol-1-yl)pyrimidin-4-yl)morpholine], in that order: 3 to 10 nM and 100 to 500 nM.
For the compound `CCO[C@H](CO)c1nc(N2CCOCC2)cc(-n2ccc(-c3cccc(C)c3)n2)n1` (single isomer, unassigned) [Compound 311], in test [1] (Table 3), the IC50 was in the range of 3 to 10 nM. The compound also came in with an EC50 in test [2] of 100 to 500 nM.
For `Cn1nccc1CC(O)c1nc(N2CCOCC2)cc(-n2ccc(-c3ccccc3)n2)n1` (stereo not shown) [Compound 201, 2-(1-methyl-1H-pyrazol-5-yl)-1-(4-morpholino-6-(3-phenyl-1H-pyrazol-1-yl)pyrimidin-2-yl)ethan-1-ol], in that order: 10 to 100 nM and 500 to 5000 nM.
For `CO[C@@H](CO)c1nc(N2CCOCC2)cc(-n2nc(-c3c[nH]c4ccccc34)cc2C)n1` (single isomer, unassigned) [Compound 261], in that order: less than 3 nM and less than 20 nM.
The compound `Cn1cc(CCOc2nc(N3CCOCC3)cc(-n3ccc(C(=O)Nc4ccccc4)n3)n2)cn1` [Compound 64, 1-(2-(2-(1-methyl-1H-pyrazol-4-yl)ethoxy)-6-morpholinopyrimidin-4-yl)-N-phenyl-1H-pyrazole-3-carboxamide] registered a 50% inhibitory concentration (IC50) in test [1] (Table 2) of less than 5 nM. For the same compound, the half-maximal effective concentration (EC50) in test [2] lay within 20 to 100 nM.
In test [1] (Table 3), `Cc1cccc(-c2ccn(-c3cc(N4CCOCC4)nc(OCC(c4ccccc4)N(C)C)n3)n2)c1` (stereo not shown) [Compound 111, N,N-dimethyl-2-((4-morpholino-6-(3-(m-tolyl)-1H-pyrazol-1-yl)pyrimidin-2-yl)oxy)-1-phenylethan-1-amine] had an IC50 of 3 to 10 nM. In addition, the 50% effective concentration (EC50) in test [2] is greater than 5000 nM.
In test [1] (Table 2), `COC(=O)c1ccn(-c2cc(N3CCOCC3)nc(OCCc3cnn(C)c3)n2)n1` [Compound 70] had an IC50 of 5 to 100 nM. For the same compound, the EC50 in test [2] is greater than 5000 nM.
In the case of `Cc1cccc(-c2ccn(-c3cc(N4CCOCC4)nc(OCC4CC4)n3)n2)c1` [Compound 101, 4-(2-(cyclopropyl-methoxy)-6-(3-(m-tolyl)-1H-pyrazol-1-yl)pyrimidin-4-yl)morpholine], the IC50 in test [1] (Table 3) lay within 3 to 10 nM. The EC50 in test [2] was in the range of 100 to 500 nM.
On to `Cc1cccc(-c2ccn(-c3cc(N4CCOCC4)nc(OC(CN(C)C)c4ccccc4)n3)n2)c1` (stereo not shown) [Compound 113, N,N-dimethyl-2-((4-morpholino-6-(3-(m-tolyl)-1H-pyrazol-1-yl)pyrimidin-2-yl)oxy)-2-phenylethan-1-amine], for which the IC50 in test [1] (Table 3) is less than 3 nM. This compound gave an EC50 in test [2] of 100 to 500 nM.
As to `COC(Cc1ccnn1C)c1nc(N2CCOCC2)cc(-n2ccc(-c3ccccc3)n2)n1` (stereo not shown) [Compound 68, 4-(2-(1-methoxy-2-(1-methyl-1H-pyrazol-5-yl)ethyl)-6-(3-phenyl-1H-pyrazol-1-yl)pyrimidin-4-yl)morpholine], in test [1] (Table 2), the IC50 is less than 5 nM. The compound further had an EC50 in test [2] of 100 to 500 nM.
Compound `Cc1cccc(-c2cc(C)n(-c3cc(N4CCOCC4)nc(OCCc4cnn(C)c4)n3)n2)c1` [Compound 219, 4-(2-(2-(1-methyl-1H-pyrazol-4-yl)ethoxy)-6-(5-methyl-3-(m-tolyl)-1H-pyrazol-1-yl)pyrimidin-4-yl)morpholine] displayed a concentration for half-maximal inhibition (IC50) in test [1] (Table 3) of less than 3 nM. Also, the half-maximal effective concentration (EC50) in test [2] was 20 to 100 nM.
The like results for `CO[C@H](CO)c1nc(N2CCOCC2)cc(-n2ccc(-c3csc4ccccc34)n2)n1` (single isomer, unassigned) [Compound 258] were, in that order, less than 3 nM and 100 to 500 nM.
Regarding `Cc1cccc(-c2ccn(-c3cc(N4CCOCC4)nc(C#CC(O)c4cnn(C)c4)n3)n2)c1` (stereo not shown) [Compound 230, 1-(1-methyl-1H-pyrazol-4-yl)-3-(4-morpholino-6-(3-(m-tolyl)-1H-pyrazol-1-yl)pyrimidin-2-yl)prop-2-yn-1-ol], the IC50 in test [1] (Table 3) was less than 3 nM. In test [2], this compound showed an EC50 of 20 to 100 nM.
`Cc1cccc(-c2cc(CN(C)C)n(-c3cc(N4CCOCC4)nc(OCCc4cnn(C)c4)n3)n2)c1` [Compound 86, N,N-dimethyl-1-(1-(2-(2-(1-methyl-1H-pyrazol-4-yl)ethoxy)-6-morpholinopyrimidin-4-yl)-3-(m-tolyl)-1H-pyrazol-5-yl)methanamine] gave an IC50 in test [1] (Table 2) of less than 5 nM. In addition, the concentration for a half-maximal effect (EC50) in test [2] lay in the range of 20 to 100 nM.
In test [1] (Table 3), `COc1nc(N2CCOCC2)cc(-n2nc(-c3cccc(C)c3)cc2CN2CCOCC2)n1` [Compound 236, 4-(2-methoxy-6-(5-(morpholinomethyl)-3-(m-tolyl)-1H-pyrazol-1-yl)pyrimidin-4-yl)morpholine] showed an IC50 of less than 3 nM. The EC50 in test [2] is greater than 5000 nM.
The like results for `CCc1cccc(-c2ccn(-c3cc(N4CCOCC4)nc([C@H](CO)OC)n3)n2)c1` [Compound 273, (R)-2-(4-(3-(3-ethylphenyl)-1H-pyrazol-1-yl)-6-morpholinopyrimidin-2-yl)-2-methoxyethan-1-ol] were, in that order, 3 to 10 nM and 100 to 500 nM.
Turning to `Cc1cccc(-c2cc(CN(C)C)n(-c3cc(N4CCOCC4)nc(OCC4(C)COC4)n3)n2)c1` [Compound 206, N,N-dimethyl-1-(1-(2-((3-methyloxetan-3-yl)methoxy)-6-morpholinopyrimidin-4-yl)-3-(m-tolyl)-1H-pyrazol-5-yl)methanamine], the IC50 in test [1] (Table 3) fell in the range of 3 to 10 nM. In test [2], this compound displayed an EC50 of 500 to 5000 nM.
The like results for `Cc1cccc(-c2ccn(-c3cc(N4CCOCC4)nc(COCc4cnn(C)c4)n3)n2)c1` [Compound 299, 4-(2-(((1-methyl-1H-pyrazol-4-yl)methoxy)methyl)-6-(3-(m-tolyl)-1H-pyrazol-1-yl)pyrimidin-4-yl)morpholine] were, in that order, less than 3 nM and 20 to 100 nM.
Take `CO[C@@H](CO)c1nc(N2CCOCC2)cc(-n2ccc(-c3cccc4ncsc34)n2)n1` [Compound 275, (R)-2-(4-(3-(benzo[d]thiazol-7-yl)-1H-pyrazol-1-yl)-6-morpholinopyrimidin-2-yl)-2-methoxyethan-1-ol]: the IC50 in test [1] (Table 3) was 100 to 5000 nM. Moreover, in test [2], the half-maximal effective concentration (EC50) is greater than 5000 nM.
For `CO[C@@H](CO)c1nc(N2CCOCC2)cc(-n2ccc(-c3cn(C)c4ccccc34)n2)n1` (single isomer, unassigned) [Compound 321], in that order: 3 to 10 nM and 500 to 5000 nM.
For `COc1nc(N2CCOCC2)c(C)c(-n2ccc(-c3cccc(C)c3)n2)n1` [Compound 83, 4-(2-methoxy-5-methyl-6-(3-(m-tolyl)-1H-pyrazol-1-yl)pyrimidin-4-yl)morpholine], the IC50 in test [1] (Table 2) lay within 101 to 1000 nM. The concentration for a half-maximal effect (EC50) in test [2] was greater than 5000 nM.
Consider `CO[C@@H](CO)c1nc(N2CCOCC2)cc(-n2nc(-c3csc4ccccc34)cc2C)n1` [Compound 279, (R)-2-(4-(3-(benzo[b]thiophen-3-yl)-5-methyl-1H-pyrazol-1-yl)-6-morpholinopyrimidin-2-yl)-2-methoxyethan-1-ol], for which the IC50 in test [1] (Table 3) is 3 to 10 nM. The compound also came in with a concentration giving a half-maximal response (EC50) in test [2] of 500 to 5000 nM.
The like results for `Cc1cccc(-c2ccn(-c3cc(N4CCOCC4)nc(OCc4ncccc4F)n3)n2)c1` [Compound 95, 4-(2-((3-fluoropyridin-2-yl)methoxy)-6-(3-(m-tolyl)-1H-pyrazol-1-yl)pyrimidin-4-yl)morpholine] were, in that order, 3 to 10 nM and 20 to 100 nM.
The like results for `CN(C)CCc1cc(-c2ccccc2)nn1-c1cc(N2CCOCC2)nc(OCCc2cnn(C)c2)n1` [Compound 220, N,N-dimethyl-2-(1-(2-(2-(1-methyl-1H-pyrazol-4-yl)ethoxy)-6-morpholinopyrimidin-4-yl)-3-phenyl-1H-pyrazol-5-yl)ethan-1-amine] were, in that order, less than 3 nM and less than 20 nM.
The like results for `Cn1cc(CCOc2nc(N3CCOCC3)cc(-n3ccc(COc4ccccc4)n3)n2)cn1` [Compound 128, 4-(2-(2-(1-methyl-1H-pyrazol-4-yl)ethoxy)-6-(3-(phenoxymethyl)-1H-pyrazol-1-yl)pyrimidin-4-yl)morpholine] were, in that order, 3 to 10 nM and 500 to 5000 nM.
On to `C[C@H](O)c1cccc(-c2ccn(-c3cc(N4CCOCC4)nc(OCCc4cnn(C)c4)n3)n2)c1` (single isomer, unassigned) [Compound 316], for which the 50% inhibitory concentration (IC50) in test [1] (Table 3) was 3 to 10 nM. This compound also had an EC50 in test [2] of 20 to 100 nM.
For the compound `Cc1cccc(-c2ccn(-c3cc(N4CCOCC4)nc(OC[C@H](O)c4ccccc4)n3)n2)c1` (single isomer, unassigned) [Compound 58], the half-inhibitory concentration (IC50) in test [1] (Table 2) is less than 5 nM. The compound further registered a concentration giving a half-maximal response (EC50) in test [2] of 20 to 100 nM.
For `Cc1cccc(-c2ccn(-c3cc(N4CCOCC4)nc([C@H]4CCCO4)n3)n2)c1` (single isomer, unassigned) [Compound 327], in test [1] (Table 3), the IC50 is 3 to 10 nM. Also, the EC50 in test [2] is 500 to 5000 nM.

What is called IC50 is the concentration that gives 50% inhibition. Usually EC50 stands for the concentration that produces a half-maximal response. Low values mean greater potency, high ones weaker potency.
